Twelve compounds from patent US20260258010A1, “THIOPHENE-2-CARBOXYLIC ACID DERIVATIVE, AND PREPARATION METHOD THEREFOR AND MEDICAL USE THEREOF” (CHINA PHARMACEUTICAL UNIVERSITY, priority 2023, published 2026) can be followed below.

The inhibition is the drop in the measured response relative to a control, in per cent.

One experiment deals with acute peritonitis model. Description: LPS-induced acute peritonitis model, inflammatory factors in peritoneal fluids. The note with it: 5, 10 and 20 mg/kg by intraarticular injection, male ICR mice, 6 h after injection, vs model control, FIGS. 6-8. Type of experiment: in vivo. As for the experimental part: Male clean-grade ICR mice were housed with free access to water and food, and with illumination for 12 h every day at an ambient temperature of 25±2° C. The animals were divided into several groups, that is, a normal control group, a model control group, and administration groups (test compound and dexamethasone). An acute peritonitis model was induced by a single intraperitoneal injection of LSP, while an equal volume of physiological saline was injected into the joint cavity in the normal control group. Each administration group was given test compound 5 (5 mg/kg, 10 mg/kg, and 20 mg/kg) and dexamethasone (10 mg/kg) by intraarticular injection. 6 h after the injection, 8 mL of PBS was injected, and the peritoneal cavity fluids were collected.
In the case of `Cc1ccc(C(=O)Nc2cc(C(=O)O)sc2Oc2ccc(C)nc2)cc1` [Compound 5, 5-((6-methylpyridin-3-yl)oxy)-4-(4-methylbenzamido)thiophene-2-carboxylic acid], the “gene expression levels of inflammatory factors in mouse peritoneal fluids” value is “down-regulate the gene expression levels of inflammatory factors to different degrees”.

A further experiment concerns IL-1β in the supernatant of the THP-1 cell culture medium. Briefly: IL-1β ELISA in supernatant of LPS/ATP-stimulated THP-1 cell culture medium. Type of experiment: cell-based, Human. The note with it: PPTN 5 μM, PMA-differentiated THP-1, LPS 100 ng/mL + ATP 5 mM, FIG. 5. As to the method:
Human THP-1 cells were cultured in an RPMI-1640 culture medium (containing 10% fetal bovine serum, 100 U/mL penicillin, and 100 μg/mL streptomycin) and seeded into a culture plate at a density of 1×10^5 cells/well before the experiment. The cells were cultured at 37° C. with 95% 02 and 5% CO2 humidity. Before the experiment, PMA was added at 100 ng/mL to each well, and the cells were incubated for 24 h to induce the differentiation of the THP-1 cells into macrophages. Test compound 5 (2.5 μM, 5 μM, and 10 μM) and PPTN (5 μM) were added to the culture medium in advance for intervention. After 1 h, LPS at a final concentration of 100 ng/mL was added to the cells. After 3 h, ATP at a final concentration of 5 mM was added. After 1 h, the indexes were determined as follows:
The level of IL-1β in the supernatant of the cell culture medium was detected by an ELISA kit (Shenzhen NeoBioscience Technology Co., Ltd.), and the results are shown in FIG. 5.
A general note: An ELISA detects its analyte on a solid surface through an enzyme-linked reagent.
Turning to `O=C(O)c1cc(-c2ccc(C3CCNCC3)cc2)c2ccc(-c3ccc(C(F)(F)F)cc3)cc2c1` [PPTN], the “level of IL-1β in the supernatant of the cell culture medium” value was “showed an expected effect”.

Another experiment concerns the target T1, P2Y14 receptor (Homo sapiens, UniProt Q15391).
T1 construct: expressed in transfected cells; host or cells: HEK293
T1 sequence (Q15391 1-338): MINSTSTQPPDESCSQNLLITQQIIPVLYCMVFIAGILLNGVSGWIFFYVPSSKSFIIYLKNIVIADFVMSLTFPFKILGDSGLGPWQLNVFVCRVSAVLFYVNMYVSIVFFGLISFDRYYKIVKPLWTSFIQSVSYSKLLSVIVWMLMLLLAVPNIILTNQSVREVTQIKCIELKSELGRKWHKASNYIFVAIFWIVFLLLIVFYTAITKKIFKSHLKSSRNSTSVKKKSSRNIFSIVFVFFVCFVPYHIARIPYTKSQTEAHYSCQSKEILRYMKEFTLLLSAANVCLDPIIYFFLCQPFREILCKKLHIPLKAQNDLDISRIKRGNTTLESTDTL
Description: cAMP inhibition assay in HEK293 cells stably transfected with the P2Y14 receptor (UDPG-stimulated, cAMP Glo). The note with it: 100 nM compound; HEK293 stably transfected with P2Y14 receptor; 30 μM Forskolin, 1 μM UDPG, 4 h; inhibition rate from cAMP content; read-out: Inhibition @ 100 nM. It is filed as cell-based. As to the method: An HEK293 cell strain stably transfected with the P2Y14 receptor was cultured in a DMEM culture medium (containing […], 100 U/mL penicillin, and 100 μg/mL streptomycin). Before the experiment, the cells were seeded into a culture plate at a density of 1×10^5 cells/well, and a serum-free culture medium was used instead. The cells were cultured at 37° C. with […] and 5% CO2 humidity. IBMX was added to inhibit the activity of PDEs, thereby ensuring a relatively high level of cAMP. The AC agonist Forskolin (30 μM) was adopted to stimulate the production of cellular cAMP. Test compounds at different concentrations (0.01 nm, 0.1 nm, 1 nm, 10 nm, and 100 nm) were added in advance, and PPTN was used as a positive control. Subsequently, 1 μM P2Y14 receptor agonist UDPG was added, and after 4 h, the content of intracellular cAMP was measured using a cAMP Glo™ Assay kit (PROMEGA Co. Ltd., USA). The inhibition rate was calculated based on the cAMP content.
For the compound `Cc1ccc(C(=O)Nc2cc(C(=O)O)sc2Oc2ccc(C)nc2)cc1` [Compound 5, 5-((6-methylpyridin-3-yl)oxy)-4-(4-methylbenzamido)thiophene-2-carboxylic acid], the inhibition at 0.1 µM is 99.4%.

For `Cc1ccc(Oc2sc(C(=O)O)cc2NC(=O)c2ccc(C#N)cc2)cn1` [Compound 15-8], the inhibition at 0.1 µM was 76.4%.

Take `Cc1ccc(Oc2sc(C(=O)O)cc2NC(=O)c2ccc(C(F)(F)F)cc2)cn1` [Compound 15-9]: the inhibition at 0.1 µM came out at 82.1%.

`COc1ccc(C(=O)Nc2cc(C(=O)O)sc2Oc2ccc(C)nc2)cc1` [Compound 15-10]: the inhibition at 0.1 µM was determined as 91.3%.

For `Cc1ccc(Oc2sc(C(=O)O)cc2NC(=O)c2ccc(C(=O)O)cc2)cn1` [Compound 15-11], the inhibition at 0.1 µM stood at 79.3%.

`Cc1ccc(Oc2sc(C(=O)O)cc2NC(=O)c2ccc(C)nc2)cn1` [Compound 17, 4-(6-methylnicotinamido)-5-((6-methylpyridin-3-yl)oxy)thiophene-2-carboxylic acid]: the inhibition at 0.1 µM came to 65.1%.

As to `Cc1ccc(C(=O)Nc2cc(C(=O)O)sc2Oc2ccc(C)nc2)nc1` [Compound 18-1], the inhibition at 0.1 µM turned out to be 45.1%.

Take `Cc1ccc(Oc2sc(C(=O)O)cc2NC(=O)c2cnc(C)cn2)cn1` [Compound 18-2]: the inhibition at 0.1 µM turned out to be 48.2%.

As to `Cc1ccc(Oc2sc(C(=O)O)cc2NC(=O)c2cnc(C)nc2)cn1` [Compound 18-3], the inhibition at 0.1 µM came to 56.2%.

`Cc1ccc(Oc2sc(C(=O)O)cc2NC(=O)c2ccc(N(C)C)cc2)cn1` [Compound 18-4]: the inhibition at 0.1 µM turned out to be 46.8%.

`Cc1ccc(Oc2sc(C(=O)O)cc2NC(=O)c2cnn(C)c2)cn1` [Compound 18-5]: the inhibition at 0.1 µM amounted to 45.8%.
